Reference: publication PMC11726654, “Discovery of MDI-114215: A Potent and Selective LIMK Inhibitor To Treat Fragile X Syndrome” (Journal of Medicinal Chemistry, 2024)

Key:
Microsomal stability [1] = details: human, microsomes, pH 7.4
Microsomal stability [2] = details: for microsomal CLint at 2 μM / microsomal CLint at 0.5 h, 2 µM: rat, microsomes, pH 7.4; for Microsomal CLint Rat: rat microsomes, 2 μM compound
In vivo PK, i.v. dosing = details: male, Sprague-Dawley, rat, plasma
Method: A satellite group of three animals were also administered i.v. test compound (dosed at 1 mg/kg in 10% DMSO/20% Cremophor/70% saline) and after 1 h, the animals culled and brain samples immediately prepared by homogenization in H2O and protein precipitation in MeCN. Bioanalysis on plasma and brain samples were performed using a UHPLC-tandem mass spectrometry using electrospray ionization.

LIMK1 = LIMK1 (Homo sapiens, UniProt P53667); experiment: RapidFire mass spectrometry kinase assay (cofilin phosphorylation); format: biochemical; details: non-phosphorylated LIMK1; mean ± SEM; read-out: Enzymatic (RapidFire) pIC50 LIMK1 (converted)
LIMK2 = LIMK2 (Homo sapiens, UniProt P53671); experiment: as above; format: biochemical; details: non-phosphorylated LIMK2; mean ± SEM; read-out: Enzymatic (RapidFire) pIC50 LIMK2 (converted)
[3] = Caco-2 permeability and efflux; details: human, Caco-2
Caco-2 = Caco-2 permeability and efflux; details: efflux ratio

Chain of LIMK1 (P53667 whole entry): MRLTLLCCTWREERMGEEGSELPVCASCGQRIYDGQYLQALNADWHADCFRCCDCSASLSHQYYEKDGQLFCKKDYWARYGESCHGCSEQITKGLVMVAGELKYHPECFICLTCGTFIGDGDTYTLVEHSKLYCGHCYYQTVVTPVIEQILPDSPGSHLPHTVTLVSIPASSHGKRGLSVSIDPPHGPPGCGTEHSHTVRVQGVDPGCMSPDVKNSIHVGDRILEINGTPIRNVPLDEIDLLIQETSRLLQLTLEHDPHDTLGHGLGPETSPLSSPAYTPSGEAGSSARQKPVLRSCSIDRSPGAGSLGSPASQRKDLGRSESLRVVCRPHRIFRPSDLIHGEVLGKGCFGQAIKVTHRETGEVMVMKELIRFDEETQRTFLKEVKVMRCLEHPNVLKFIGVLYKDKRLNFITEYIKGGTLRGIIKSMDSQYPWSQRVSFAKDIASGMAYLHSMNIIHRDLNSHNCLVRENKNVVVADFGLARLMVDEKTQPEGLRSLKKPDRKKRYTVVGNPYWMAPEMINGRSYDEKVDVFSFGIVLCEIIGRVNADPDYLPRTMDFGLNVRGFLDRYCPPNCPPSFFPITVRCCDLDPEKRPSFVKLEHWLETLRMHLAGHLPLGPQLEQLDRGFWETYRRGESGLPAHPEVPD
Chain of LIMK2 (P53671 whole entry): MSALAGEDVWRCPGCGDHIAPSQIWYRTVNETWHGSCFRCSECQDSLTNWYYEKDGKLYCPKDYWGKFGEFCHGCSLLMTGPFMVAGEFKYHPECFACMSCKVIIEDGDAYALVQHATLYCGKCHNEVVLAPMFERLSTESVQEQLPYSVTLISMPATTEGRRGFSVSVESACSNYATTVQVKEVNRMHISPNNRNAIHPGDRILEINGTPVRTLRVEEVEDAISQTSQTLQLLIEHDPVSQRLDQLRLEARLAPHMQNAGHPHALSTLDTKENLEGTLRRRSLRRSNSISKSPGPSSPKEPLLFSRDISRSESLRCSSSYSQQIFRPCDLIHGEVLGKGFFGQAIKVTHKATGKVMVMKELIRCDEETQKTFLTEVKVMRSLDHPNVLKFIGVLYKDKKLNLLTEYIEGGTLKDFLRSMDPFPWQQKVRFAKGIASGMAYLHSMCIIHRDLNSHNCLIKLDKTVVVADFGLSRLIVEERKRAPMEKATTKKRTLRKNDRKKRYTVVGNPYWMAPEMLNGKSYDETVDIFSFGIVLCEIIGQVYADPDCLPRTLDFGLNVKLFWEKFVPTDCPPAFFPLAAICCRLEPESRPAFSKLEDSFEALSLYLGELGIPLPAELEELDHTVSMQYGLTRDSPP

With `N#CCCN(Cc1ccncc1)C(=O)c1ccc(S(=O)(=O)Nc2ccccc2)cc1` [Compound 55, N-(2-Cyanoethyl)-4-(phenylsulfamoyl)-N-(4-pyridylmethyl)benzamide] as the molecule, how does the microsomal CLint at 2 μM (Microsomal stability [1]) read?
The microsomal CLint at 2 μM was 32 µL/min/mg.

And the microsomal CLint at 2 μM (Microsomal stability [2])?
The microsomal CLint at 2 μM was 81 µL/min/mg.

And the CLint scaled (In vivo PK, i.v. dosing; intravenous)?
Its CLint scaled is 16.5 mL/min/kg.

What about the AUC(0-inf) at 1 h (In vivo PK, i.v. dosing; iv, 0.2 mg/kg) of the same molecule?
Its AUC(0-inf) at 1 h is 217 ng·h/mL.

And the Vd at 1 h (In vivo PK, i.v. dosing; iv, 0.2 mg/kg)?
The Vd at 1 h was 0.4 L/kg.

And the half-life at 1 h (In vivo PK, i.v. dosing; iv, 0.2 mg/kg)?
Its half-life at 1 h is 18 min.

Which results are given for `C[C@@H](c1ccccc1)N(CC1CC1)C(=O)c1ccc(S(=O)(=O)Nc2ccccc2)cc1` [Compound 64, (S)-N-(Cyclopropylmethyl)-N-(1-phenylethyl)-4-(N-phenylsulfamoyl)benzamide]?
IC50 (LIMK1): 0.24 µM; IC50 (LIMK2): 0.1 µM; microsomal CLint at 2 μM (Microsomal stability [1]): 774 µL/min/mg; Microsomal CLint Rat (Microsomal stability [2]): Rapid

For `C[C@H](c1ccccc1)N(CC1CC1)C(=O)c1ccc(S(=O)(=O)Nc2ccccc2)cc1` [Compound 65, (R)-N-(Cyclopropylmethyl)-N-(1-phenylethyl)-4-(N-phenylsulfamoyl)benzamide], which IC50 (LIMK1) is on record?
The IC50 was 4.9 µM.

And the IC50 (LIMK2)?
The IC50 was 1.07 µM.

And the microsomal CLint at 2 μM (Microsomal stability [1])?
The microsomal CLint at 2 μM was 419 µL/min/mg.

And the “Microsomal CLint Rat” value (Microsomal stability [2])?
The value was “Rapid”.

For `O=C(c1ccc(S(=O)(=O)Nc2ccccc2)cc1)N(Cc1ccc(F)cn1)CC1CC1` [Compound 71, N-(Cyclopropylmethyl)-N-((5-fluoropyridin-2-yl)methyl)-4-(N-phenylsulfamoyl)benzamide], which microsomal CLint at 0.5 h, 2 µM (Microsomal stability [1]) is on record?
Its microsomal CLint at 0.5 h, 2 µM is 282 µL/min/mg.

And the “Microsomal CLint Rat” value (Microsomal stability [2])?
Its value is “Rapid”.

What about the Papp [3] of the same molecule?
Its Papp is 21.1 ×10⁻⁶ cm/s.

What does the source list for `O=C(c1ccc(S(=O)(=O)Nc2ccccc2)cc1)N(Cc1ccc(NC2COC2)cn1)CC1CC1` [Compound 76, N-(Cyclopropylmethyl)-N-[[5-(oxetan-3-ylamino)-2-pyridyl]methyl]-4-(phenylsulfamoyl)benzamide]?
microsomal CLint at 0.5 h, 2 µM (Microsomal stability [1]): 71 µL/min/mg; microsomal CLint at 0.5 h, 2 µM (Microsomal stability [2]): 22 µL/min/mg; Papp [3]: 1.7 ×10⁻⁶ cm/s

Which microsomal CLint at 2 μM (Microsomal stability [1]) does the source give for `CN(CCO)c1ccc(CN(CC2CC2)C(=O)c2ccc(S(=O)(=O)Nc3ccccc3)cc2)nc1` [Compound 77, N-(Cyclopropylmethyl)-N-[[5-[2-hydroxyethyl(methyl)amino]-2-pyridyl]methyl]-4-(phenylsulfamoyl)benzamide] here?
Its microsomal CLint at 2 μM is 109 µL/min/mg.

And the “Microsomal CLint Rat” value (Microsomal stability [2])?
The value was “Rapid”.

What about the Papp [3] of the same molecule?
Its Papp is 0.5 ×10⁻⁶ cm/s.

What does the source list for `O=C(c1ccc(S(=O)(=O)Nc2ccccc2)cc1)N(Cc1ccc(CCc2nnn[nH]2)cn1)CC1CC1` [Compound 79, N-(Cyclopropylmethyl)-4-(phenylsulfamoyl)-N-[[5-[2-(1H-tetrazol-5-yl)ethyl]-2-pyridyl]methyl]benzamide]?
microsomal CLint at 2 μM (Microsomal stability [1]): 22 µL/min/mg; microsomal CLint at 2 μM (Microsomal stability [2]): 12 µL/min/mg; Papp [3]: 0.1 ×10⁻⁶ cm/s; Caco-2 ER (Caco-2): 103

For `Cc1nc(CN(CC2CC2)C(=O)c2ccc(S(=O)(=O)Nc3ccccc3)cc2)ccc1NCCO` [Compound 82, N-(Cyclopropylmethyl)-N-[[5-(2-hydroxyethylamino)-6-methyl-2-pyridyl]methyl]-4-(phenylsulfamoyl)benzamide], which microsomal CLint at 2 μM (Microsomal stability [1]) is on record?
The microsomal CLint at 2 μM was 97 µL/min/mg.

What about the microsomal CLint at 2 μM (Microsomal stability [2]) of the same molecule?
The microsomal CLint at 2 μM was 221 µL/min/mg.

What about the Papp [3] of the same molecule?
The Papp was 0.6 ×10⁻⁶ cm/s.

And the “Caco-2 ER” value (Caco-2)?
Its value is 81.

Which microsomal CLint at 0.5 h, 2 µM (Microsomal stability [1]) does the source give for `Cc1cc(CN(CC2CC2)C(=O)c2ccc(S(=O)(=O)Nc3ccccc3)cc2)ncc1NCCO` [Compound 83, N-(Cyclopropylmethyl)-N-[[5-(2-hydroxyethylamino)-4-methyl-2-pyridyl]methyl]-4-(phenylsulfamoyl)benzamide] here?
Its microsomal CLint at 0.5 h, 2 µM is 130 µL/min/mg.

And the microsomal CLint at 0.5 h, 2 µM (Microsomal stability [2])?
The microsomal CLint at 0.5 h, 2 µM was 171 µL/min/mg.

What about the Papp [3] of the same molecule?
Its Papp is 0.5 ×10⁻⁶ cm/s.

Which microsomal CLint at 2 μM (Microsomal stability [1]) does the source give for `CN(c1ccccc1)S(=O)(=O)c1ccc(C(=O)N(Cc2ccc(NCCO)cn2)CC2CC2)cc1` [Compound 84, N-(Cyclopropylmethyl)-N-[[5-(2-hydroxyethylamino)-2-pyridyl]methyl]-4-[methyl(phenyl)sulfamoyl]benzamide] here?
The microsomal CLint at 2 μM was 344 µL/min/mg.

And the microsomal CLint at 2 μM (Microsomal stability [2])?
The microsomal CLint at 2 μM was 409 µL/min/mg.

What about the Papp [3] of the same molecule?
Its Papp is 5.7 ×10⁻⁶ cm/s.

And the “Caco-2 ER” value (Caco-2)?
The value was 12.
